From US9695155B2, “Herbicidal substituted pyrimidinyloxy benzene compounds” (E. I. DU PONT DE NEMOURS AND COMPANY, priority 2013, dated 2017)

What was measured:
soybean = experiment: Test E preemergence; type: in vivo, Glycine max; conditions: for Soybean plant response rating: scale 0 to 100 (0 no effect, 100 complete control); for Plant response rating, Soybean: 125 g ai/ha, scale 0 to 100, 0 no effect, 100 complete control
Procedure, shortened: (§1)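 Compound in a non-phytotoxic solvent mixture with surfactant was applied preemergence to seeds in silt loam soil, or postemergence to plants 2 to 18 cm tall grown in peat-based potting medium. Plants were kept in a greenhouse for 14 to 21 days, then rated visually against untreated controls on a 0 (no effect) to 100 (complete control) scale.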

fall panicum = experiment: Test E preemergence; type: in vivo, Panicum dichotomiflorum; conditions: for Panicum, Fall plant response rating: scale 0 to 100 (0 no effect, 100 complete control); for Plant response rating, Panicum, Fall: 125 g ai/ha, scale 0 to 100, 0 no effect, 100 complete control
Procedure, shortened: as §1

dayflower = experiment: Test E preemergence; type: in vivo, Commelina virginica; conditions: for Dayflower, VA plant response rating: scale 0 to 100 (0 no effect, 100 complete control); for Plant response rating, Dayflower, VA: 125 g ai/ha, scale 0 to 100, 0 no effect, 100 complete control
Procedure, shortened: as §1

green foxtail = experiment: Test E preemergence; type: in vivo, Setaria viridis; conditions: for Foxtail, Green plant response rating: scale 0 to 100 (0 no effect, 100 complete control); for Plant response rating, Foxtail, Green: 125 g ai/ha, scale 0 to 100, 0 no effect, 100 complete control
Procedure, shortened: as §1

Italian ryegrass [1] = experiment: Test A postemergence; type: in vivo, Lolium multiflorum; conditions: for Ryegrass, Italian plant response rating: 125 g ai/ha
Procedure, shortened: (§2)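 Greenhouse pot test, loam/sand soil. Formulation: non-phytotoxic solvent mix plus surfactant. Pre: directed spray onto soil after sowing. Post: plants at 1–2 leaf, 2–10 cm. Rated visually vs untreated controls at ~10 d, 0 (no effect) to 100 (complete control).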

ragweed [2] = experiment: Test A preemergence; type: in vivo, Ambrosia elatior; conditions: 0 to 100 scale where 0 is no effect and 100 is complete control
Procedure, shortened: as §2

Italian ryegrass [3] = experiment: Test A preemergence; type: in vivo, Lolium multiflorum; conditions: 0 to 100 scale where 0 is no effect and 100 is complete control
Procedure, shortened: as §2

ragweed [4] = experiment: Test E preemergence; type: in vivo, Ambrosia elatior; conditions: for Ragweed plant response rating: scale 0 to 100 (0 no effect, 100 complete control); for Plant response rating, Ragweed: 125 g ai/ha, scale 0 to 100, 0 no effect, 100 complete control
Procedure, shortened: as §1

sandbur = experiment: Test E preemergence; type: in vivo, Cenchrus echinatus; conditions: for Sandbur plant response rating: scale 0 to 100 (0 no effect, 100 complete control); for Plant response rating, Sandbur: 125 g ai/ha, scale 0 to 100, 0 no effect, 100 complete control
Procedure, shortened: as §1

yellow nutsedge = experiment: Test E preemergence; type: in vivo, Cyperus esculentus; conditions: for Nutsedge, Yellow plant response rating: scale 0 to 100 (0 no effect, 100 complete control); for Plant response rating, Nutsedge, Yellow: 125 g ai/ha, scale 0 to 100, 0 no effect, 100 complete control
Procedure, shortened: as §1

blackgrass = experiment: Test A postemergence; type: in vivo, Alopecurus myosuroides; conditions: for Blackgrass plant response rating: 125 g ai/ha
Procedure, shortened: as §2

palmer pigweed = experiment: Test E preemergence; type: in vivo, Amaranthus palmeri; conditions: for Pigweed, Palmer plant response rating: scale 0 to 100 (0 no effect, 100 complete control); for Plant response rating, Pigweed, Palmer: 125 g ai/ha, scale 0 to 100, 0 no effect, 100 complete control
Procedure, shortened: as §1

wild poinsettia = experiment: Test E preemergence; type: in vivo, Euphorbia heterophylla; conditions: for Poinsettia, Wild plant response rating: scale 0 to 100 (0 no effect, 100 complete control); for Plant response rating, Poinsettia, Wild: 125 g ai/ha, scale 0 to 100, 0 no effect, 100 complete control
Procedure, shortened: as §1

[5] = 31 g ai/ha, 0 to 100 scale, 0 no effect, 100 complete control
[6] = 0 to 100 scale where 0 is no effect and 100 is complete control
[7] = 31 g ai/ha, visual, approximately 10 days
[8] = 500 g ai/ha, 0 to 100 scale where 0 is no effect and 100 is complete control

In the case of `N#Cc1cnn(-c2c(CF)cccc2Oc2ncc(F)cn2)c1` [Compound 151], the “Soybean plant response rating” value (soybean; 31 g ai/ha) is reported as 30, the “Plant response rating, Soybean” value (soybean) is reported as 75 and the “Panicum, Fall plant response rating” value (fall panicum; 31 g ai/ha) is reported as 60. The “Panicum, Fall plant response rating” value (fall panicum; 62 g ai/ha) was 100, the “Plant response rating, Panicum, Fall” value (fall panicum) was 98 and the “Dayflower, VA plant response rating” value (dayflower; 16 g ai/ha) was 0. The “Dayflower, VA plant response rating” value (dayflower; 31 g ai/ha) was 10, the “Dayflower, VA plant response rating” value (dayflower; 62 g ai/ha) was 65 and the “Plant response rating, Dayflower, VA” value (dayflower) was 85. The “Foxtail, Green plant response rating” value (green foxtail; 16 g ai/ha) was 20, the “Foxtail, Green plant response rating” value (green foxtail; 31 g ai/ha) was 20 and the “Foxtail, Green plant response rating” value (green foxtail; 62 g ai/ha) was 70. The “Plant response rating, Foxtail, Green” value (green foxtail) was 75, the “Plant response rating, Ryegrass, Italian” value (Italian ryegrass [1]; [5]) was 0 and the “Ryegrass, Italian plant response rating” value (Italian ryegrass [1]; [6]) was 30. The “Plant response rating, Ragweed” value (ragweed [2]; [7]) was 20, the “Plant response rating, Ragweed” value (ragweed [2]; 125 g ai/ha) was 80 and the “Plant response rating, Ryegrass, Italian” value (Italian ryegrass [3]; [7]) was 0. The “Plant response rating, Ryegrass, Italian” value (Italian ryegrass [3]; 125 g ai/ha) was 0, the “Ragweed plant response rating” value (ragweed [4]; 31 g ai/ha) was 90 and the “Ragweed plant response rating” value (ragweed [4]; 62 g ai/ha) was 95. The “Plant response rating, Ragweed” value (ragweed [4]) was 100, the “Sandbur plant response rating” value (sandbur; 31 g ai/ha) was 0 and the “Sandbur plant response rating” value (sandbur; 62 g ai/ha) was 0. The “Plant response rating, Sandbur” value (sandbur) was 35, the “Nutsedge, Yellow plant response rating” value (yellow nutsedge; 31 g ai/ha) was 0 and the “Nutsedge, Yellow plant response rating” value (yellow nutsedge; 62 g ai/ha) was 0. The “Plant response rating, Nutsedge, Yellow” value (yellow nutsedge) was 0, the “Plant response rating, Blackgrass” value (blackgrass; [5]) was 20 and the “Blackgrass plant response rating” value (blackgrass; [6]) was 50. For the same compound, the “Pigweed, Palmer plant response rating” value (palmer pigweed; 31 g ai/ha) was 100, the “Pigweed, Palmer plant response rating” value (palmer pigweed; 62 g ai/ha) was 100 and the “Plant response rating, Pigweed, Palmer” value (palmer pigweed) was 100. For the same compound, the “Poinsettia, Wild plant response rating” value (wild poinsettia; 31 g ai/ha) was 60, the “Poinsettia, Wild plant response rating” value (wild poinsettia; 62 g ai/ha) was 100 and the “Plant response rating, Poinsettia, Wild” value (wild poinsettia) was 100.

With `FC(F)(F)COc1cnn(-c2ccccc2Oc2ncc(Cl)cn2)c1` [Compound 138, 5-chloro-2-[2-[4-(2,2,2-trifluoroethoxy)-1H-pyrazol-1-yl]phenoxy]pyrimidine] the “Soybean plant response rating” value (soybean; 16 g ai/ha) was 0, the “Soybean plant response rating” value (soybean; 31 g ai/ha) was 0 and the “Plant response rating, Soybean” value (soybean) was 35. For the same compound, the “Panicum, Fall plant response rating” value (fall panicum; 16 g ai/ha) was 0, the “Panicum, Fall plant response rating” value (fall panicum; 31 g ai/ha) was 25 and the “Panicum, Fall plant response rating” value (fall panicum; 62 g ai/ha) was 100. The “Plant response rating, Panicum, Fall” value (fall panicum) was 100, the “Dayflower, VA plant response rating” value (dayflower; 16 g ai/ha) was 0 and the “Dayflower, VA plant response rating” value (dayflower; 31 g ai/ha) was 5. The “Dayflower, VA plant response rating” value (dayflower; 62 g ai/ha) was 30, the “Plant response rating, Dayflower, VA” value (dayflower) was 40 and the “Foxtail, Green plant response rating” value (green foxtail; 16 g ai/ha) was 0. The “Foxtail, Green plant response rating” value (green foxtail; 31 g ai/ha) was 0, the “Foxtail, Green plant response rating” value (green foxtail; 62 g ai/ha) was 20 and the “Plant response rating, Foxtail, Green” value (green foxtail) was 98. The “Ryegrass, Italian plant response rating” value (Italian ryegrass [1]; [6]) was 40, the “Plant response rating, Ryegrass, Italian” value (Italian ryegrass [1]; [8]) was 90 and the “Plant response rating, Ragweed” value (ragweed [2]; 125 g ai/ha) was 30. The “Ragweed plant response rating” value (ragweed [2]; 500 g ai/ha) was 60, the “Plant response rating, Ryegrass, Italian” value (Italian ryegrass [3]; 125 g ai/ha) was 0 and the “Ryegrass, Italian plant response rating” value (Italian ryegrass [3]; 500 g ai/ha) was 50. For the same compound, the “Ragweed plant response rating” value (ragweed [4]; 16 g ai/ha) was 0, the “Ragweed plant response rating” value (ragweed [4]; 31 g ai/ha) was 0 and the “Ragweed plant response rating” value (ragweed [4]; 62 g ai/ha) was 0. For the same compound, the “Plant response rating, Ragweed” value (ragweed [4]) was 0, the “Sandbur plant response rating” value (sandbur; 16 g ai/ha) was 0 and the “Sandbur plant response rating” value (sandbur; 31 g ai/ha) was 0. The “Sandbur plant response rating” value (sandbur; 62 g ai/ha) was 10, the “Plant response rating, Sandbur” value (sandbur) was 15 and the “Nutsedge, Yellow plant response rating” value (yellow nutsedge; 16 g ai/ha) was 0. For the same compound, the “Nutsedge, Yellow plant response rating” value (yellow nutsedge; 31 g ai/ha) was 10, the “Nutsedge, Yellow plant response rating” value (yellow nutsedge; 62 g ai/ha) was 15 and the “Plant response rating, Nutsedge, Yellow” value (yellow nutsedge) was 40. For the same compound, the “Blackgrass plant response rating” value (blackgrass; [6]) was 50, the “Plant response rating, Blackgrass” value (blackgrass; [8]) was 90 and the “Pigweed, Palmer plant response rating” value (palmer pigweed; 16 g ai/ha) was 0. For the same compound, the “Pigweed, Palmer plant response rating” value (palmer pigweed; 31 g ai/ha) was 70, the “Pigweed, Palmer plant response rating” value (palmer pigweed; 62 g ai/ha) was 75 and the “Plant response rating, Pigweed, Palmer” value (palmer pigweed) was 70. The “Poinsettia, Wild plant response rating” value (wild poinsettia; 16 g ai/ha) was 0, the “Poinsettia, Wild plant response rating” value (wild poinsettia; 31 g ai/ha) was 25 and the “Poinsettia, Wild plant response rating” value (wild poinsettia; 62 g ai/ha) was 35. For the same compound, the “Plant response rating, Poinsettia, Wild” value (wild poinsettia) was 25.
